Data taken from PubChem BioAssay AID2060510 (Molecular Pharmacology Branch, DTP, NCI, 2025).

Tested on: 439559-082-T-J2-PDC spheroids viability
Test: Anticancer human tumor 439559-082-T-J2-PDC patient-derived colon adenocarcinoma cell line growth inhibition [GQUAD]
Conditions: for IC50: curve of first compound; for viability, T/C: stronger effect = lower value
Text: DNA G-quadruplex Stabilizer Agents in Combinations in Complex Spheroids
A high-throughput screen of multi-cell type tumor spheroids was designed to identify active combinations of DNA G-quadruplex stabilizer agents and targeted small molecules. Complex spheroids include a stromal component modeled by human endothelial cells (HUVEC) and fibroblasts modeled by human mesenchymal stem cells (MSCs). The concentration ranges selected for each drug and investigational agent were based upon clinically achievable concentrations if the clinical Cmax of the agent was known.
Compounds. The drugs and investigational agents: pidnarulex (CX-5461; NSC782164), APTO-253 (NSC789042), BRACO-19 (NSC847499), peposertib (NSC802822), ceralasertib (NSC780249), elimusertib (NSC800525), camonsertib (NSC841442), AZD-1390 (NSC803789), olaparib (NSC753686), talazoparib (NSC767125), ART-558 (NSC835418), sotorasib (NSC818433), MRTX-1133 (NSC836407), SN-38 (NSC673596), topotecan (NSC609699), etoposide (NSC141540), doxorubicin (NSC123127), gemcitabine (NSC613327), 5-fluorouracil (NSC19893), paclitaxel (NSC125973), vemurafenib (NSC761431), panobinostat (NSC761190), R-306465 (JNJ-16241199; NSC773264), adavosertib (NSC754352), TP-3654 (NSC805149), carboplatin (NSC241240), KSQ-4279 (NSC840948), and staurosporine (NSC755774) were obtained from the National Cancer Institute (NCI) Developmental Therapeutics Program Chemical Repository (34). The FDA-approved anticancer drug set is available from the NCI Developmental Therapeutics Program. […] The stock solutions were prepared in dimethyl sulfoxide (DMSO, Sigma-Aldrich, St. Louis, MO, cat. D2650) at 800-fold the tested concentration and stored at -70 degrees C prior to their use. All drugs and investigational agents were tested over a range starting from a high concentration at or near the clinical Cmax and decreasing in half-log increments. If the clinical Cmax for an agent had not been determined, the highest concentration tested was 10 microM.
2.3 Cell Culture. All cells were maintained in an incubator at 37 degrees C and 5% CO2 with 95% humidity. The PDC lines were cultured according to standard operating procedures established by the NCI PDMR. All PDCs were thawed and cultured in Matrigel-coated flasks prepared with a working solution of 1X Ham's F-12 nutrient mix, without supplementation (Invitrogen, cat. 11765054), 100 U/mL penicillin-streptomycin (Invitrogen, cat. 15140122), and 2.5% Matrigel (Corning Inc., cat. 354248) for the first three passages. The 857933-349-R-J2-PDC line was cultured in 6C/Colon 1B media, which includes advanced DMEM/F-12 (Thermo Fisher Scientific, cat. 12634028), 10 mM HEPES (Thermo Fisher Scientific, cat. 15630080), 1X GlutaMAX supplement (Thermo Fisher Scientific, cat. 35050061), 0.1 mg/mL primocin (InvivoGen, cat. ant-pm-2), 10% defined fetal bovine serum, heat inactivated (HyClone Laboratories Inc., cat. SH30070.03HI), 50% L-WRN conditioned media (ATCC, cat. CRL-3276), 1.25 mM N-Acetyl-L-cysteine (Sigma-Aldrich, cat. A9165), 10 mM nicotinamide (Sigma-Aldrich, cat. N0636), 1X B-27 supplement (Thermo Fisher Scientific, cat. 17504044), 1X N-2 supplement (Thermo Fisher Scientific, cat. 17502048), 10 microM Y-27632 dihydrochloride (Tocris Bioscience, cat. 1254), and 50 ng/mL human EGF recombinant protein (Thermo Fisher Scientific, cat. PHG0311). The 485176-168-R4-J1-PDC line was cultured in Panc media, which includes all 6C/Colon 1B media components plus 100 ng/mL human FGF-10 (Thermo Fisher Scientific, cat. 100-26), 500 nM SB-431542 (Selleckchem, cat. S1067), and gastrin (Tocris, cat. 3006).
[…]

[1] = second compound 0.0316 µM, first compound 0.0316 µM
[2] = second compound 0.0316 µM, first compound 0.316 µM
[3] = second compound 0.1 µM, first compound 0.0316 µM
[4] = second compound 0.1 µM, first compound 0.316 µM
[5] = second compound 0.316 µM, first compound 0.0316 µM
[6] = second compound 0.316 µM, first compound 0.316 µM
[7] = second compound 1 µM, first compound 0.0316 µM
[8] = second compound 1 µM, first compound 0.316 µM
[9] = second compound 3.16 µM, first compound 0.0316 µM
[10] = second compound 3.16 µM, first compound 0.316 µM
[11] = second compound 10 µM, first compound 0.0316 µM
[12] = second compound 10 µM, first compound 0.316 µM
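Further: spheroids exposed to the agents for 7 days before readout.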
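Wherever viability, T/C is given: percent of luminescence signal in DMSO vehicle wells taken as 100% viability.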

CCc1c2c(nc3ccc(O)cc13)-c1cc3c(c(=O)n1C2)COC(=O)[C@]3(O)CC + Cc1[nH]c2ccc(F)cc2c1-c1nc2c3cccnc3c3ncccc3c2[nH]1
IC50 (second compound 0.0316 µM): 223 nM | IC50 (second compound 0.1 µM): > 316 nM | IC50 (second compound 0.316 µM): > 316 nM | IC50 (second compound 1 µM): 227 nM | IC50 (second compound 3.16 µM): 85.4 nM | IC50 (second compound 10 µM): 167 nM | viability, T/C (second compound 0.0316 µM, first compound 0.000999 µM): 93.4% | viability, T/C (second compound 0.0316 µM, first compound 0.00316 µM): 90.6% | viability, T/C (second compound 0.0316 µM, first compound 0.00999 µM): 88.5% | viability, T/C [1]: 78.6% | viability, T/C (second compound 0.0316 µM, first compound 0.0999 µM): 63.2% | viability, T/C [2]: 44.2% | viability, T/C (second compound 0.1 µM, first compound 0.000999 µM): 102% | viability, T/C (second compound 0.1 µM, first compound 0.00316 µM): 93.1% | viability, T/C (second compound 0.1 µM, first compound 0.00999 µM): 73.2% | viability, T/C [3]: 73.8% | viability, T/C (second compound 0.1 µM, first compound 0.0999 µM): 65.8% | viability, T/C [4]: 49.3% | viability, T/C (second compound 0.316 µM, first compound 0.000999 µM): 109% | viability, T/C (second compound 0.316 µM, first compound 0.00316 µM): 97.1% | viability, T/C (second compound 0.316 µM, first compound 0.00999 µM): 84.5% | viability, T/C [5]: 76.4% | viability, T/C (second compound 0.316 µM, first compound 0.0999 µM): 70.2% | viability, T/C [6]: 51.1% | viability, T/C (second compound 1 µM, first compound 0.000999 µM): 90.9% | viability, T/C (second compound 1 µM, first compound 0.00316 µM): 79.8% | viability, T/C (second compound 1 µM, first compound 0.00999 µM): 77.8% | viability, T/C [7]: 70.7% | viability, T/C (second compound 1 µM, first compound 0.0999 µM): 65.6% | viability, T/C [8]: 43.6% | viability, T/C (second compound 3.16 µM, first compound 0.000999 µM): 89.1% | viability, T/C (second compound 3.16 µM, first compound 0.00316 µM): 74.3% | viability, T/C (second compound 3.16 µM, first compound 0.00999 µM): 62.9% | viability, T/C [9]: 65.6% | viability, T/C (second compound 3.16 µM, first compound 0.0999 µM): 51.9% | viability, T/C [10]: 32.5% | viability, T/C (second compound 10 µM, first compound 0.000999 µM): 73% | viability, T/C (second compound 10 µM, first compound 0.00316 µM): 75.3% | viability, T/C (second compound 10 µM, first compound 0.00999 µM): 65.6% | viability, T/C [11]: 60.7% | viability, T/C (second compound 10 µM, first compound 0.0999 µM): 63.1% | viability, T/C [12]: 39%

COc1cc(C2c3cc4c(cc3C(OC3OC5COC(C)OC5C(O)C3O)C3COC(=O)C23)OCO4)cc(OC)c1O (centres undefined) + Cc1[nH]c2ccc(F)cc2c1-c1nc2c3cccnc3c3ncccc3c2[nH]1
IC50 (second compound 0.0316 µM): > 10000 nM | IC50 (second compound 0.1 µM): > 10000 nM | IC50 (second compound 0.316 µM): > 10000 nM | IC50 (second compound 1 µM): > 10000 nM | IC50 (second compound 3.16 µM): > 10000 nM | IC50 (second compound 10 µM): > 10000 nM | viability, T/C [1]: 98.1% | viability, T/C (second compound 0.0316 µM, first compound 0.1 µM): 99.7% | viability, T/C [2]: 97.9% | viability, T/C (second compound 0.0316 µM, first compound 1 µM): 87.8% | viability, T/C (second compound 0.0316 µM, first compound 3.16 µM): 86.5% | viability, T/C (second compound 0.0316 µM, first compound 10 µM): 66.1% | viability, T/C [3]: 102% | viability, T/C (second compound 0.1 µM, first compound 0.1 µM): 98.2% | viability, T/C [4]: 97.5% | viability, T/C (second compound 0.1 µM, first compound 1 µM): 87.1% | viability, T/C (second compound 0.1 µM, first compound 3.16 µM): 96.9% | viability, T/C (second compound 0.1 µM, first compound 10 µM): 64.9% | viability, T/C [5]: 108% | viability, T/C (second compound 0.316 µM, first compound 0.1 µM): 101% | viability, T/C [6]: 103% | viability, T/C (second compound 0.316 µM, first compound 1 µM): 94.2% | viability, T/C (second compound 0.316 µM, first compound 3.16 µM): 85.6% | viability, T/C (second compound 0.316 µM, first compound 10 µM): 65.3% | viability, T/C [7]: 98.2% | viability, T/C (second compound 1 µM, first compound 0.1 µM): 87.8% | viability, T/C [8]: 89.4% | viability, T/C (second compound 1 µM, first compound 1 µM): 83.8% | viability, T/C (second compound 1 µM, first compound 3.16 µM): 86.7% | viability, T/C (second compound 1 µM, first compound 10 µM): 58.9% | viability, T/C [9]: 76.5% | viability, T/C (second compound 3.16 µM, first compound 0.1 µM): 85.2% | viability, T/C [10]: 84.1% | viability, T/C (second compound 3.16 µM, first compound 1 µM): 73.5% | viability, T/C (second compound 3.16 µM, first compound 3.16 µM): 79.9% | viability, T/C (second compound 3.16 µM, first compound 10 µM): 56.7% | viability, T/C [11]: 88.5% | viability, T/C (second compound 10 µM, first compound 0.1 µM): 85.3% | viability, T/C [12]: 83.8% | viability, T/C (second compound 10 µM, first compound 1 µM): 90.6% | viability, T/C (second compound 10 µM, first compound 3.16 µM): 78.5% | viability, T/C (second compound 10 µM, first compound 10 µM): 57.2%
